According to patent US10898504B2, “Substituted nucleoside analogues for use as PRMT5 inhibitors” (Janssen Pharmaceutica NV, priority 2016, dated 2021):
Several values for one entry are separate records, joined by “and”; a condition that tells them apart may be missing. Identical values can stand only once.

Legend:
[1] = target: T1, PRMT5-MEP50 enzyme (Homo sapiens, UniProt O14744); assay: In vitro assay (Assay 1): PRMT5-MEP50 high throughput mass spectrometer assay, inhibition of SAH formation; format: biochemical; conditions: individual measurements shown, read-out: pIC50 Assay 1 (converted)
T1 construct: One virus expresses full length human PRMT5 with Flag-tag at N-terminus
T1 sequence (O14744 whole entry): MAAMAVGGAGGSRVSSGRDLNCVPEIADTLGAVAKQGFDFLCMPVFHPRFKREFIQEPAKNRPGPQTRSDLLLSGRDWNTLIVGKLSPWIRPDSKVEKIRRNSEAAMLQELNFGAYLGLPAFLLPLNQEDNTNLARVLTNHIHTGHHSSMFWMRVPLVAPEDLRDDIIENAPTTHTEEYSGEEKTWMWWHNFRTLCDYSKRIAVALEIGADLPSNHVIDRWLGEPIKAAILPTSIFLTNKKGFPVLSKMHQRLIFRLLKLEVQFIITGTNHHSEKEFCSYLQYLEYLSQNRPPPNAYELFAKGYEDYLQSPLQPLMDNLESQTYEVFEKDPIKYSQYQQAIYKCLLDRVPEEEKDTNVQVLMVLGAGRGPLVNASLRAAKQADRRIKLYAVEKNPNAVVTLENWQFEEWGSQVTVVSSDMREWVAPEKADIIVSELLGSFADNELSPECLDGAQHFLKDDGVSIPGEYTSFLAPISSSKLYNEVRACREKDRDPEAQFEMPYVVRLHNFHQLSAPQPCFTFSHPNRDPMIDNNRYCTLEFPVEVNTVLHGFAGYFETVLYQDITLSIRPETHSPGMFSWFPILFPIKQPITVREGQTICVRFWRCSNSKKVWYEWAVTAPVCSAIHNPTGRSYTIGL
T1 sequence (Q9BQA1 whole entry partner): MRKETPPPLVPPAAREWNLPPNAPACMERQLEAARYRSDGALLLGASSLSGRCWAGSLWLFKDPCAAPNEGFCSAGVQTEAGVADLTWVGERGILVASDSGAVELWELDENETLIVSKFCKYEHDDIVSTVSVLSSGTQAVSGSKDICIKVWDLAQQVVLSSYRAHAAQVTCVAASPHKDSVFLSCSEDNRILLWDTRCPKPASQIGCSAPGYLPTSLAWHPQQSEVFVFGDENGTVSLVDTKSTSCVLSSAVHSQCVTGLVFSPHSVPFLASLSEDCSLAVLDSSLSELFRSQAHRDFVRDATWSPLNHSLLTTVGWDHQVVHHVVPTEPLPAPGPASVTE
Excerpt: EXPERIMENTAL PROCEDURES IN VITRO ASSAY (ASSAY 1)
PRMT5-MEP50 enzyme was purchased from Charles River (Argenta). The enzyme complex was produced in insect cells (Sf9) infected simultaneously with two baculoviruses. One virus expresses full length human PRMT5 with Flag-tag at N-terminus, the second virus expresses full length MEP50 with His6-TEV cleavage at N-terminus. The protein was affinity purified using anti-Flag (M2) beads eluted with 3×FLAG peptide, followed by His-Select eluted with 0.5M imidazole. Eluted protein was then dialysed against tris-buffered saline (TBS) (pH 8.0) containing 20% glycerol and 3 mM dithiothreitol (DTT).
Full-length untagged human recombinant histone H2A (residues 1-130, Genbank Accession #NM_021052, MW=14.1 kDa) expressed in E. coli was purchased from Reaction Biology Corporation, Cat #HMT-11-146. Reagents used for making reaction buffer or stopping reaction were purchased including Tris base (Sigma Cat #T-1503), NaCl (Sigma Cat #RGF-3270), MgCl2 (Sigma Cat #M0250), DTT (Invitrogen Cat #15508-013) and Formic Acid (Riedel deHaen, Cat #33015)
High Throughput Mass Spectrometer Assay
PRMT5 catalyzes the sequential methylations of the terminal nitrogen atoms on the guanidine groups of arginine residues within proteins using co-substrate S-adenosyl-L-methionine (AdoMet, SAM), forming mono-methyl (MMA), symmetric-dimethyl arginine (sDMA) and S-adenosyl-L-homocysteine (AdoHcy, SAH). The enzyme activity was determined by following the product SAH formation using high throughput mass spectrometry (Agilent Rapidfire 300 System coupled to a Sciex 4000 series QTrapm triple-quad MS/MS). The reaction buffer was 20 mM Tris-HC, pH 8.5, 50 mM NaCl, 5 mM MgCl2 and 1 mM DTT. The reaction activity was stopped using 1% formic acid (final concentration).
The IC50 Studies were performed using eleven point dosing series made for each compound by serially diluted 1:2 in dimethyl sulfoxide (DMSO), with point 12 being a DMSO control. Compounds were first spotted to plates, and followed by addition of 2 μM SAM and 0.6 μM H2A (histone H2A) solution mixture. The same volume of enzyme solution was added to initiate the enzymatic reactions. The final concentrations of the reaction are at 1 μM SAM, 0.3 μM H2A and 10 nM enzyme. The reaction was incubated at 30° C. for 60 minutes (min) and then quenched by addition of formic acid to a final concentration of 1%. The inhibitions of SAH formation in the presence of compounds were calculated as a percentage of the control relative to the uninhibited reaction as a function of inhibitor concentration. The data were fit as follows: Y=Bottom+(Top−Bottom)/(1+10^((log IC50−X)*h))
where IC50 is the inhibitor concentration (same unit as X) at 50% inhibition and h is the Hill slope. Y is percent of inhibition, X is log of compound concentration. Bottom and Top are the plateaus in same units as Y.

[2] = test system: A549 cells; assay: PD assay (Assay 2): inhibition of nuclear symmetric Arginine dimethylation (SYM10 immunohistochemistry) in A549 cells; format: cell-based; conditions: individual measurements shown; for IC50: Homo sapiens, A549, PD assay in A549 cells, read-out: pIC50 Assay 2 (converted); for pIC50 Assay 2: PD assay in A549 cells
Procedure: EXPERIMENTAL PROCEDURE PD ASSAY (ASSAY 2)
A549 cells (ATCC, Cat #CCL-185) were cultured in Dulbecco's Modified Eagle's Medium (DMEM) (Sigma, Cat #D5796), supplemented with 10% Fetal Calf Serum (FCS)(HyClone™, Cat #SV30160.03), 100 mM Sodium Pyruvate (Sigma, Cat #S8636), 200 mM L-Glutamine (Sigma, Cat #G7513) and 50 mg/mL Gentamycing (Gibco, Cat #15750-037).
Reagents used for buffers were purchased: Dulbecco's phosphate buffered saline (DPBS) without Ca/Mg (Sigma, Cat #D8537), phosphate buffered saline (PBS) 10× (Roche, Cat #11 666 789 001), Formalin solution 10% (Sigma, HT50-1-128-4L), MeOH 100% (Sigma, Cat #32213-2.5L), Triton X-100 (Acros, Cat #215680010), Bovine Serum Albumin (BSA) (Sigma, Cat #A2153), Alexa fluor 488 goat anti-rabbit antibody (Life Technologies, Cat #A11034), HCS CellMask Deep Red Stain (Life Technologies, Cat #H32721), Hoechst Stain (Life Technologies, Cat #33258), Anti-dimethyl-Arginine, sym (SYM10) antibody (Millipore, 07-412).
Immunohistochemistry Procedure
Cells were plated at 400 cells/40 μL/well in 384 well black plates μclear bottom (Perkin Elmer) and overnight incubated at 37° C., 5% CO2. The IC50 Studies were performed using nine point dosing series ranging from 10 μM to […] for each compound. 80 nL of the respective dilution of the compounds was added using the Labcyte POD 810 (Labcyte) reaching a final DMSO concentration of 0.2% in cell culture. After an incubation period of 48 h at 37° C. and 5% CO2, cells were fixed in 10% formalin solution for 15 min at r.t. and 20 min in ice-cold MeOH, after which they were washed 3× in DPBS. Subsequently, the cells were blocked for 1 h in blocking buffer (PBS+1% BSA and 0.5% Triton X-100) and incubated overnight at 4° C. with the SYM10 antibody diluted 1/2000 in blocking buffer. The cells were washed 3× with washing buffer (PBS+0.1% Triton X-100) and incubated with the Alexa fluor 488 goat anti-rabbit antibody diluted 1/200 in blocking buffer for 1 h at r.t. Subsequently, they were washed 3× with washing buffer and incubated for 30 min at r.t. with PBS containing a 1/5000 dilution of Hoechst Stain and a 1/5000 dilution of the HCS CellMask Deep Red Stain. After a final wash with PBS, the plates were imaged using the 10×W lens of the Opera® system (Perkin Elmer Life Sciences) using following settings (values in nm):
In the above equations, the following variable names are use: […]
In the above equations, the following controls were used for normalization: […]
Low control: minimum level of symmetrically dimethylated Arginines (cells treated with reference compound at 10 μM).
High control: maximum level of symmetrically dimethylated Arginines (DMSO treated cells).
IC50 and pIC50 (−log IC50) values were calculated using the appropriate software.
pIC50 values (Co. No. means compound number; n.d. means not determined).

| IC50 [1] | IC50 [2] [µM] | pIC50 Assay 2 [2] | Structure (SMILES) |
| --- | --- | --- | --- |
| 1.55 µM | > 10 | – | Nc1ncnc2c1ccn2[C@@H]1O[C@H](CN2CCC(N)C2)[C@@H](O)[C@H]1O (some centres unmarked) [Compound 54] |
| 0.309 µM | 6.17 | – | NCCC1CCN(C[C@H]2O[C@@H](n3ccc4c(N)ncnc43)[C@H](O)[C@@H]2O)C1 (some centres unmarked) [Compound 55] |
| 0.186 µM | ~10 | – | NCC1CCN(C[C@H]2O[C@@H](n3ccc4c(N)ncnc43)[C@H](O)[C@@H]2O)C1 (some centres unmarked) [Compound 56] |
| 0.0112 µM | 0.158 | – | NCC[C@@H]1CCCN1C[C@H]1O[C@@H](n2ccc3c(N)ncnc32)[C@H](O)[C@@H]1O [Compound 57] |
| 0.724 µM | ~6.92 | – | NCC[C@H]1CCCN1C[C@H]1O[C@@H](n2cnc3c(N)ncnc32)[C@H](O)[C@@H]1O [Compound 58] |
| 0.0447 µM | 2.4 | – | NCC[C@@H]1CCCN1C[C@H]1O[C@@H](n2cnc3c(N)ncnc32)[C@H](O)[C@@H]1O [Compound 59] |
| 0.0288 µM | 1.15 | – | NCC1CCCN1C[C@H]1O[C@@H](n2ccc3c(N)ncnc32)[C@H](O)[C@@H]1O (some centres unmarked) [Compound 60] |
| 0.129 µM | > 10 | – | Nc1nccc2c1ccn2[C@@H]1O[C@H](CN2CCCC23CCNCC3)[C@@H](O)[C@H]1O [Compound 61] |
| 0.501 µM | > 10 | – | O[C@@H]1[C@H](O)[C@@H](CN2CCCC23CCNCC3)O[C@H]1n1cnc2cncnc21 [Compound 62] |
| 0.0562 µM | 0.955 | – | CN1CCC2(CCCN2C[C@H]2O[C@@H](n3ccc4c(N)nc(Cl)nc43)[C@H](O)[C@@H]2O)CC1 [Compound 65] |
| 0.603 µM | 6.76 | – | CN1CCC2(CCCN2C[C@H]2O[C@@H](n3ccc4c(N)nccc43)[C@H](O)[C@@H]2O)CC1 [Compound 66] |
| 1.86 µM | ~6.17 | – | O[C@@H]1[C@H](O)[C@@H](CN2CC(F)(F)CC23CCN(C2CC2)CC3)O[C@H]1n1ccc2c(Cl)ncnc21 [Compound 67] |
| 0.229 µM | ~1.95 | – | Nc1ncnc2c([C@@H]3O[C@H](CN4CCCC45CCNCC5)[C@@H](O)[C@H]3O)cnn12 [Compound 68] |

Further lines, the compound ahead of its results:

| Structure (SMILES) | IC50 [1] | IC50 [2] [µM] | pIC50 Assay 2 [2] |
| --- | --- | --- | --- |
| CN1CCC2(CC1)CCN(C[C@H]1O[C@@H](n3cnc4c(N)ncnc43)[C@H](O)[C@@H]1O)C2 [Compound 16] | 22.4 µM | > 10 | – |
| CN1CC2(CCN2C[C@H]2O[C@@H](n3cnc4c(N)ncnc43)[C@H](O)[C@@H]2O)C1 [Compound 18] | 8.51 µM | > 10 | – |
| Nc1ncnc2c1ccn2[C@@H]1O[C@H](CN2CCCC23CCNCC3)[C@@H](O)[C@H]1O [Compound 19] | 0.0437 µM and 0.0115 µM | – | 6.93 and 7.24 |
| Nc1ncnc2c1c(F)cn2[C@@H]1O[C@H](CN2CCCC23CCNCC3)[C@@H](O)[C@H]1O [Compound 24] | 0.0117 µM | ~0.0676 | – |
| C[C@@]1(O)[C@H](O)[C@@H](CN2CCCC23CCNCC3)O[C@H]1n1cnc2c(N)ncnc21 [Compound 27] | 1.35 µM | > 10 | – |
| Cc1nc(N)c2ccn([C@@H]3O[C@H](CN4CCCC45CCNCC5)[C@@H](O)[C@H]3O)c2n1 [Compound 28] | 0.0263 µM | 1.15 | – |
| Nc1ncnc2c1ccn2[C@@H]1O[C@H](CN2CC(F)(F)CC23CCNCC3)[C@@H](O)[C@H]1O [Compound 29] | 0.0102 µM and 0.00759 µM | ~0.0603 | ~7.35 |
| Cc1nc(N)c2ccn([C@@H]3O[C@H](CN4CCCC45CCN(C)CC5)[C@@H](O)[C@H]3O)c2n1 [Compound 30] | 0.2 µM | 1.74 | – |
| Nc1ncnc2c1ccn2[C@@H]1O[C@H](CN2CCOC3(CNC3)C2)[C@@H](O)[C@H]1O [Compound 31] | 0.0398 µM | ~1.45 | – |
| Nc1ncnc2c1ccn2[C@@H]1O[C@H](CN2CCOC3(CCCNC3)C2)[C@@H](O)[C@H]1O (some centres unmarked) [Compound 32] | 4.47 µM | 9.12 | – |
| Nc1ncnc2c1ccn2[C@@H]1O[C@H](CN2CCCC3(COCCN3)C2)[C@@H](O)[C@H]1O (some centres unmarked) [Compound 37] | 0.17 µM | 5.37 | – |
| Nc1ncnc2c1ccn2[C@@H]1O[C@H](CN2CCC3(CNCCC3(F)F)C2)[C@@H](O)[C@H]1O (some centres unmarked) [Compound 38] | 1.62 µM | 3.89 | – |
| Nc1ncnc2c1ccn2[C@@H]1O[C@H](CN2CCCC3(CCNC3)C2)[C@@H](O)[C@H]1O (some centres unmarked) [Compound 40] | 0.00631 µM | 0.407 | – |
| Nc1ncnc2c1ccn2[C@@H]1O[C@H](CN2CC(C(F)(F)F)CC23CCNCC3)[C@@H](O)[C@H]1O (some centres unmarked) [Compound 41] | 5.75 µM | > 10 | – |
| Nc1ncnc2c1ccn2[C@@H]1O[C@H](CN2CCCC3(CNC3)C2)[C@@H](O)[C@H]1O [Compound 45] | 0.0832 µM | ~0.741 | – |
| NCCC1CN(C[C@H]2O[C@@H](n3ccc4c(N)ncnc43)[C@H](O)[C@@H]2O)CCO1 (some centres unmarked) [Compound 47] | 0.692 µM | > 10 | – |
| NCC1CN(C[C@H]2O[C@@H](n3ccc4c(N)ncnc43)[C@H](O)[C@@H]2O)CCO1 (some centres unmarked) [Compound 48] | 0.145 µM | ~2.57 | – |
| NC[C@H]1COCCN1C[C@H]1O[C@@H](n2ccc3c(N)ncnc32)[C@H](O)[C@@H]1O [Compound 49] | 0.12 µM | ~5.13 | – |
| NCC1CCC(F)(F)CN1C[C@H]1O[C@@H](n2ccc3c(N)ncnc32)[C@H](O)[C@@H]1O (some centres unmarked) [Compound 50] | 0.0447 µM | 1.51 | – |
| NCC1CCCN(C[C@H]2O[C@@H](n3ccc4c(N)ncnc43)[C@H](O)[C@@H]2O)C1 (some centres unmarked) [Compound 51] | 0.0214 µM | 1 | – |
| NCC1CCCCN1C[C@H]1O[C@@H](n2ccc3c(N)ncnc32)[C@H](O)[C@@H]1O (some centres unmarked) [Compound 52] | 0.0102 µM | ~1.12 | – |
| Nc1ncnc2c1ccn2[C@@H]1O[C@H](CN2CCCC(N)C2)[C@@H](O)[C@H]1O (some centres unmarked) [Compound 53] | 0.0288 µM | 0.891 | – |
